Entries after “also recorded” stand apart in the source; their conditions may differ. Starred links: 1 amine or outer side, 2 acyl side, 3 side chain; linkers in the order of their positions; H or OH if unused. Positions of bridges follow the written chain, without caps; N, C: chain ends. Non-standard residues stand in square brackets, D forms with d. Residues, ends and D or L forms follow the SMILES beside them. Adda = CO[C@@H](Cc1ccccc1)[C@@H](C)/C=C(C)/C=C/[C@H](N[*:1])[C@H](C)C(=O)[*:2]; dAsp(3S-Me) = C[C@H](C(=O)[*:3])[C@@H](N[*:1])C(=O)[*:2]; d(γGlu) = O=C(O)[C@@H](CCC(=O)[*:2])N[*:1]; NMeDha = C=C(NC)C(=O)O
How the values were obtained:
[1] = target: T1, human PNKP (hPNKP) 3'-phosphatase activity (Homo sapiens, UniProt Q96T60); assay: Fluorescence quenching-based screening assay for PNKP 3'-phosphatase activity; type: biochemical; details: 100 μM compound, 50 ng hPNKP
T1 construct: made in house; host or cells: bacteria (said only for the batch compared with aprataxin)
Experimental: The […] assay developed originally for protein kinases by QTL Biosystems (Santa Fe, N. Mex.) was modified. […] The TAMRA-labelled oligonucleotide lacking a 3'-phosphate served as a control. […] The assay was performed in 384-well white Optiplate microplates (PerkinElmer, Woodbridge, ON) in 70 mM Tris-HCl, pH 7.4, 60 mM MgCl2, 5 mM MnCl2, 0.3% BSA, 0.09% sodium azide. Reaction buffer was prepared by adding 1 mM DTT immediately prior to use. Five μL of 3'-phosphatase substrate (final concentration 0.5 μM) was used per well. In duplicate, 10 μl of each concentration of hPNKP was added per well. Plates were incubated for 1 hour at 37° C. and then 15 μl of 1× sensor solution (provided by QTL) was added to each well and incubated for 30 minutes at room temperature. Fluorescence (485 nm excitation and 520 nm emission wavelengths) of each well was read in a FLUOstar Optima® (BMG Labtech Inc, Durham, N.C.). Data were analyzed using GraphPad Prism® Software (San Diego, Calif.). […] Small molecules were provided in powder form and were dissolved in 100% DMSO and a final concentration of 100 μM was added to each well and assays were performed as described above. After obtaining an optimum calibration curve and enzyme concentration curve, a simplified form of the assay to test the library in a short time, was employed. One concentration of hPNKP, 50 ng, was tested and compared with the control well with no enzyme. The assay was conducted in the same way as described above with respect to oligonucleotides, buffer, controls, incubation lengths/temperatures, centrifugations and sensor addition. The fluorescence-based phosphatase assay adapted was originally developed to monitor protein phosphatase activity (34). This assay involves a fluorescent sensor molecule coated in trivalent metal cations which causes superquenching of the sensor signal when in close proximity to a dye (TAMRA) on the substrate. The sensor is brought close to TAMRA via the ionic bond formed between the terminal DNA phosphate and the trivalent metal cations on the sensor. Removal of the phosphate leads to an elevation of fluorescence because the sensor is not brought close enough to TAMRA for its signal to be quenched. […] Heat inactivated hPNKP was used as a control.

[2] = target: T2, hPNKP 3'-phosphatase activity (Homo sapiens, UniProt Q96T60); assay: Conventional radio-gel assay for hPNKP 3'-phosphatase activity; type: biochemical
T2 construct: made in house; host or cells: bacteria (said only for the batch compared with aprataxin)

[3] = tested on: A549-VO vector only control cells
[4] = tested on: M059J cells (DNA-PKcs negative); type: cell-based, human
PP-1cγ = target: T3, PP-1cγ (Homo sapiens, UniProt P36873); assay: PP-1cγ pNPP phosphatase assay; type: biochemical
T3 construct: made in house; host or cells: E. coli
T3 sequence (P36873 whole entry): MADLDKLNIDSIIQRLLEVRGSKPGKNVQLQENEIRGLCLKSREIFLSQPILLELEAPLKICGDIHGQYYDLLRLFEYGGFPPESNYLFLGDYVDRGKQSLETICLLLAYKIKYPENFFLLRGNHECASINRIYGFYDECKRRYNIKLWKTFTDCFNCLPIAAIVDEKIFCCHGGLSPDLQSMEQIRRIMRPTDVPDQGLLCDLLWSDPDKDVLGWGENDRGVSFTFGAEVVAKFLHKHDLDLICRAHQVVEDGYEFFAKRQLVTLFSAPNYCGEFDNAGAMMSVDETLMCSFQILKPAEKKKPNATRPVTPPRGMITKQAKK
Experimental: PP-1cγ and calcineurin activity was analyzed, using a colorimetric p-nitrophenol phosphate (pNPP) assay as previously described (33). The reaction were carried out in a 96-well microplate with a final volume of 60 μl containing 40 μl of pNPP assay buffer (50 mM Tris, pH 7.4, 0.1 mM EDTA, 30 mM MgCl2, 0.5 mM MnCl2, 1 mg/ml BSA, 0.2% β-mercaptoethanol), 0.03 μg PP-1cγ (specific activity>30 units per mg) or a catalytically equivalent quantity of calcineurin and 10 μl of 0.5 mM DNA 3′-phosphatase inhibitor sample in DMSO or 10 μl of 50 μM A12B4C3 sample in DMSO, or control solvent. After a 10-minute incubation at 37° C., 10 μl of 30 mM pNPP was added to each well and incubated for an additional of 60 minutes and 45 minutes for PP-1cγ and calcineurin, respectively.

SMILES | inhibition of hPNKP phosphatase activity (substrate dephosphorylation) in the screening assay [1] | inhibition of hPNKP phosphatase activity, radio-gel assay [2] | cell survival of control cells (A549-VO) [3] | cell survival of M059J cells [4] | reduction of the activity of PP1 (PP-1cγ)
O=C1C2C=CC(C(O)c3ccccc3)N(Nc3ccc([N+](=O)[O-])cc3)C2C(=O)N1c1ccccc1 (stereo not drawn) [Compound A1B4C3, 2-(hydroxy(phenyl)methyl)-1-(4-nitrophenylamino)-6-phenyl-6,7a-dihydro-1H-pyrrolo[3,4-b]pyridine-5,7(2H,4aH)-dione] | significant inhibition; also recorded: marked inhibition | inhibited |  |  | 
CN1C(=O)C2C=CC(C(O)C(c3ccccc3)c3ccccc3)N(NC(=O)OC(C)(C)C)C2C1=O (stereo not drawn) [Compound A26B11C2, tert-butyl 2-(1-hydroxy-2,2-diphenylethyl)-6-methyl-5,7-dioxo-2,4a,5,6,7,7a-hexahydro-1H-pyrrolo[3,4-b]pyridin-1-ylcarbamate] | significant inhibition; also recorded: marked inhibition | inhibited |  |  | 
CN1C(=O)C2C=CC(C(O)c3cccs3)N(Nc3ccccc3)C2C1=O (stereo not drawn) [Compound A39B1C2, 2-(hydroxy(thiophen-2-yl)methyl)-6-methyl-1-(phenylamino)-6,7a-dihydro-1H-pyrrolo[3,4-b]pyridine-5,7(2H,4aH)-dione] | significant inhibition; also recorded: marked inhibition | inhibited |  |  | 
O=C1NCCc2c(OCCCCN3CCCCC3)cccc21 [DPQ, 3,4-dihydro-5[4-(1-piperindinyl)butoxy]-1(2H)-isoquinoline] |  |  | no such relationship | reduced survival | 
C=C1C(=O)N[C@H](C)C(=O)N[C@@H](CC(C)C)C(=O)N[C@@H](C(=O)O)[C@H](C)C(=O)N[C@@H](CCCNC(=N)N)C(=O)N[C@@H](/C=C/C(C)=C/[C@H](C)[C@H](Cc2ccccc2)OC)[C@H](C)C(=O)N[C@@H](C(=O)O)CCC(=O)N1C [microcystin LR, reference compound] (R[Adda][d(γGlu)][NMeDha][dA]L[dAsp(3S-Me)]-OH; lactam N-7) |  |  |  |  | ~65%

From patent publication US9694073B2, “Small molecule inhibitors of polynucleotide kinase/phosphatase, poly(ADP-ribose) polymerase and uses thereof” (THE GOVERNORS OF THE UNIVERSITY OF ALBERTA, priority 2009, dated 2017)
